The assay concerns the target T1, IL-17A (Homo sapiens, UniProt Q16552).
T1 sequence (Q16552 24-155): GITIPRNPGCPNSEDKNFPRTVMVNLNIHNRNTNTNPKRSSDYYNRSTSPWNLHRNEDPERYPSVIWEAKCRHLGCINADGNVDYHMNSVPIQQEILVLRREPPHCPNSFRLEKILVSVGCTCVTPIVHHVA
As to the kind of experiment: Inhibition of IL-17A induced IL-6 release from dermal fibroblast cell line (HDF cell line assay). In kind it is cell-based. Conditions: HDF cells stimulated with IL-17A 50 pM + TNFα 25 pM, IL-6 release by HTRF. An excerpt:
Inhibition of IL-17A Induced IL-6 Release from Dermal Fibroblast Cell Line The purpose of this assay is to test the neutralising ability to IL-17 proteins, in a human primary cell system. Stimulation of normal human dermal fibroblasts (HDF) with IL-17 alone produces only a very weak signal but in combination with certain other cytokines, such as TNFα, a synergistic effect can be seen in the production of inflammatory cytokines, i.e. IL-6. HDFs were stimulated with IL-17A (50 pM) in combination with TNF-α (25 pM). The resultant IL-6 response was then measured using a homogenous time-resolved FRET kit from Cisbio. The kit utilises two monoclonal antibodies, one labelled with Eu-Cryptate (Donor) and the second with d2 or XL665 (Acceptor). The intensity of the signal is proportional to the concentration of IL-6 present in the sample (Ratio is calculated by 665/620×104). The ability of a compound to inhibit IL-17 induced IL-6 release from human dermal fibroblasts is measured in this assay. […] The cells were re-suspended in complete media (5 mL) counted and adjusted to a concentration of 3.125×10^4 cells/mL before being added to the 384 well assay plate (Corning #3701) at 40 μL per well. […] The mixture was incubated at room temperature for 3 h with gentle shaking (<400 rpm) before being read on a Synergy Neo 2 plate reader (Excitation: 330 nm; Emission: […]).

SMILES strings stand for the structures.

Turning to `Cc1nonc1C(=O)N[C@H](c1cn2ncc(C3(C(=O)NCC(C)(F)F)CC(C)(O)C3)nc2n1)C1CCC(F)(F)CC1` (single isomer, unassigned) [Example 1], the pIC50 (listed as 1 (Peak 1)) stood at 7.7.

Regarding `Cc1nonc1C(=O)N[C@H](c1cn2ncc(C3(C(=O)NCC(C)(F)F)CC(C)(O)C3)nc2n1)C1CCC(F)(F)CC1` (single isomer, unassigned) [Example 2], the pIC50 (listed as 2 (Peak 2)) turned out to be 8.4.
